Laboratory results: the supplement of paper PMC8882468

Legend:
Assay in all cases: CTG-3D luminescence at 96 h relative to day-0 seeding control (ratio to day 0); higher = more growth / less cytotoxicity; PDxO 3D drug screen, 96 h, CTG-3D normalised to day-0 seeding control.
HCI-023 = system: HCI-023 (organoid from a triple-negative breast cancer xenograft)
MDA-MB-231 = system: MDA-MB-231
HCI-017.E2 = system: HCI-017.E2 (organoid from an ER-positive breast cancer xenograft)
HCI-002 = system: HCI-002 (organoid from a triple-negative breast cancer xenograft)

C[C@]12CC[C@@H]3c4ccc(O)cc4C[C@@H](CCCCCCCCC[S+]([O-])CCCC(F)(F)C(F)(F)F)[C@H]3[C@@H]1CC[C@@H]2O (stereo partly drawn) [fulvestrant]
CTG-3D luminescence at 96 h
Conditions | 12.5 pM | 0.00025 µM | 0.005 µM | 0.1 µM | 1 µM | 10 µM | 100 µM | 625 fM
HCI-002, days in culture: 62 | 2.97 | 2.65 | 3.14 | 2.57 | 2.65 | – | – | –
HCI-002, days in culture: 82 | 2.97 | 2.85 | 2.4 | 2.79 | 2.79 | – | – | –
HCI-002, days in culture: 91 | 3.59 | 3.05 | 2.86 | 3.23 | 2.74 | – | – | –
HCI-002, days in culture: 191 | 2.73 | 3.1 | 2.93 | 2.95 | 3.38 | – | – | –
HCI-002, days in culture: 209 | 2.15 | 2.27 | 2.46 | 2.23 | – | – | – | –
HCI-002, days in culture: 227 | 5.09 | 4.65 | 4.95 | 5.59 | – | – | – | –
HCI-017.E2, days in culture: 85 | 2.84 | 3.05 | 2.96 | 2.18 | 1.78 | 1.41 | 1.89 | 2.52
HCI-023, days in culture: 111 | 1.5 | 1.45 | 1.4 | 1.27 | 0.963 | 1.24 | 0.911 | 1.61
HCI-023, days in culture: 128 | 1.83 | 1.54 | 1.6 | 2.08 | 1.33 | 1.56 | 1.11 | 1.75

CTG-3D luminescence at 96 h
Conditions | 12.5 pM | 0.00025 µM | 0.005 µM | 0.1 µM | 1 µM | 10 µM | 100 µM | 625 fM
HCI-017.E2 | 1.94 | 2.16 | 2.05 | 1.92 | 1.53 | 1.4 | 1.55 | 1.88
MDA-MB-231 | 4.61 | 4.53 | 4.7 | 4.58 | 4.8 | 4.81 | 5.18 | 4.69
